Results reported in patent US8846657B2, “Substituted imidazopyridines as HDM2 inhibitors” (Merck Sharp & Dohme Corp., priority 2012, dated 2014).

target: HDM2 (Homo sapiens (Human), UniProt Q00987); assay: HDM2 FRET assay (inhibition of p53 peptide binding to HDM2); details: read-out: FRET IC50
Sequence (Q00987 17-125): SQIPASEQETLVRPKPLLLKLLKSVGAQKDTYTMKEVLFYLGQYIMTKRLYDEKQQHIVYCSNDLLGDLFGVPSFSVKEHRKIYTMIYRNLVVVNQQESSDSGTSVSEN
Excerpt: Methods: An HDM2 FRET assay was developed to assess the compounds' inhibitory activity towards binding of p53 protein. […] Ratio of em520/em495 was used to calculate % inhibition and to obtain IC50 with 4-parameter logistic equation.
Concentration of compound was plotted against em520/Cem495 ratio signal. To generate IC50 values, the dose-response curves were fitted to a standard sigmoidal curve and IC50 values were derived by nonlinear regression analysis.

Compound | IC50 [nM]
C[C@H]1CC[C@H](Cn2c(N3CCC[C@H]3C(F)(F)F)nc3cc(-c4nnn[nH]4)nc(-c4cncc(Cl)c4)c32)CC1 [Example 14.1, 4-(5-chloropyridin-3-yl)-3-[(trans-4-methylcyclohexyl)methyl]-6-(1H-tetrazol-5-yl)-2-[(2S)-2-(trifluoromethyl)pyrrolidin-1-yl]-3H-imidazo[4,5-c]pyridine] | < 1
C[C@H]1CC[C@H](Cn2c(N3CCO[C@@H]4CCC[C@H]43)nc3cc(-c4nnn[nH]4)nc(-c4cncc(Cl)c4)c32)CC1 [Example 14.4, 4-(5-chloropyridin-3-yl)-2-[(4aR,7aR)-hexahydrocyclopenta[b][1,4]oxazin-4(4aH)-yl]-3-[(trans-4-methylcyclohexyl)methyl]-6-(1H-tetrazol-5-yl)-3H-imidazo[4,5-c]pyridine] | < 1

same assay, conditions: read-out: FRET IC50; 0.5 nM HDM2 (residues 17-125), 3 nM FITC peptide, 2 h at room temperature; values rounded to the nearest integer

Compound | IC50 [nM]
C[C@H]1CC[C@H](Cn2c(N3CCOC[C@H]3c3ccccc3)nc3cc(-c4noc(=O)[nH]4)nc(-c4cncc(Cl)c4)c32)CC1 [Example 2.1, 3-{4-(5-chloropyridin-3-yl)-3-[(trans-4-methylcyclohexyl)methyl]-2-[(3R)-3-phenylmorpholin-4-yl]-3H-imidazo[4,5-c]pyridin-6-yl}-1,2,4-oxadiazol-5(4H)-one] | < 1
C[C@H]1CC[C@H](Cn2c(N3CCC[C@H]3c3nccs3)nc3cc(-c4noc(=O)[nH]4)nc(-c4cncc(Cl)c4)c32)CC1 [Example 3.81, 3-{4-(5-chloropyridin-3-yl)-3-[(trans-4-methylcyclohex-yl)methyl]-2-[(2S)-2-(1,3-thiazol-2-yl)pyrrolidin-1-yl]-3H-imidazo[4,5-c]pyridin-6-yl}-1,2,4-oxadiazol-5(4H)-one] | < 1
CO[C@@H]1C[C@@H](C(C)C)N(c2nc3cc(-c4noc(=O)[nH]4)nc(-c4cncc(Cl)c4)c3n2C[C@H]2CC[C@H](C)CC2)C1 [Example 3.90, 3-{4-(5-chloropyridin-3-yl)-2-[(2S,4R)-4-methoxy-2-(propan-2-yl)pyrrolidin-1-yl]-3-[(trans-4-methylcyclohexyl)methyl]-3H-imidazo[4,5-d]pyridin-6-yl}-1,2,4-oxadiazol-5(4H)-one] | < 1
COCCO[C@@H]1C[C@@H](C(C)C)N(c2nc3cc(-c4noc(=O)[nH]4)nc(-c4cncc(Cl)c4)c3n2C[C@H]2CC[C@H](C)CC2)C1 [Example 3.144, 3-{4-(5-chloropyridin-3-yl)-2-[(2S,4R)-4-(2-methoxyethoxy)-2-(1-methylethyl)-pyrrolidin-1-yl]-3-[(trans-4-methylcyclohex-yl)methyl]-3H-imidazo[4,5-c]pyridin-6-yl}-1,2,4-oxadiazol-5(4H)-one] | < 1
